Columns and labels:
Experiment in all cases: relative viability (nuclei count vs DMSO), 5 days (fraction); higher = more cells survive
Mirin + Crizotinib = compound: N=C1NC(=O)/C(=C/c2ccc(O)cc2)S1 [Mirin] + C[C@@H](Oc1cc(-c2cnn(C3CCNCC3)c2)cnc1N)c1c(Cl)ccc(F)c1Cl [Crizotinib] (partner 1 µM)
Method in brief: (§1)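 Values are medians from duplicate plates. Each reflects relative viability, defined as the nuclei count of treated wells over that of vehicle wells. Lung cancer cell lines in 1536-well plates were pin-tool dosed one day after seeding with one drug alone or with a fixed anchor-drug dose plus five library-drug doses (not always all listed) in √10 steps, then fixed, stained and imaged at 4× after 5 days.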

[1] = compound: CCn1c(-c2nonc2N)nc2cnc(Oc3cccc(NC(=O)c4ccc(OCCN5CCOCC5)cc4)c3)cc21 + O=C(c1cc(Cc2n[nH]c(=O)c3ccccc23)ccc1F)N1CCN(C(=O)C2CC2)CC1 [Olaparib] (partner 8 µM)
Method in brief: as §1

Mirin + Linsitinib = compound: N=C1NC(=O)/C(=C/c2ccc(O)cc2)S1 [Mirin] + C[C@]1(O)C[C@@H](c2nc(-c3ccc4ccc(-c5ccccc5)nc4c3)c3c(N)nccn32)C1 [Linsitinib] (partner 1 µM)
Method in brief: as §1

[2] = compound: CCC1=CN=CN=C1N2CCN(CC2)CC3=NC4=C(N3)C=C(C=C4)C(F)(F)F + Nc1ncn([C@H]2C[C@H](O)[C@@H](CO)O2)c(=O)n1 [Decitabine] (partner 2 µM)
Method in brief: as §1

Cell Line | relative viability (Mirin + Crizotinib; first compound 0.25 µM) | relative viability (Mirin + Crizotinib; first compound 2.5 µM) | relative viability (Mirin + Crizotinib; first compound 7.906 µM) | relative viability (Mirin + Crizotinib; first compound 25 µM) | relative viability ([1]; first compound 0.04 µM) | relative viability ([1]; first compound 0.1265 µM) | relative viability ([1]; first compound 0.4 µM) | relative viability ([1]; first compound 1.265 µM) | relative viability ([1]; first compound 4 µM) | relative viability (Mirin + Linsitinib; first compound 0.25 µM) | relative viability (Mirin + Linsitinib; first compound 2.5 µM) | relative viability (Mirin + Linsitinib; first compound 7.906 µM) | relative viability (Mirin + Linsitinib; first compound 25 µM) | relative viability ([2]; first compound 0.04 µM) | relative viability ([2]; first compound 0.1265 µM) | relative viability ([2]; first compound 0.4 µM) | relative viability ([2]; first compound 1.265 µM) | relative viability ([2]; first compound 4 µM) | relative viability (Mirin + Crizotinib; first compound 0.7906 µM) | relative viability (Mirin + Linsitinib; first compound 0.7906 µM)
LOU-NH91 | 0.759 | 0.718 | 0.77 | 0.902 | 0.919 | 0.756 | 0.665 | 0.494 | 0.534 | 0.956 | 1.01 | 0.936 | 1.04 | 0.797 | 0.79 | 0.806 | 0.841 | 0.816 | – | –
LU99A | 0.526 | 0.499 | 0.499 | 0.37 | 0.313 | 0.299 | 0.262 | 0.256 | 0.244 | 0.515 | 0.508 | 0.46 | 0.421 | 0.906 | 0.877 | 0.785 | 0.837 | 0.843 | 0.463 | 0.472
LXF-289 | 0.808 | 0.787 | 0.899 | 0.945 | 1.07 | 1.22 | 1.01 | 1.12 | 0.984 | 0.971 | 1 | 1.03 | 1.02 | 0.348 | 0.325 | 0.426 | 0.343 | 0.419 | 0.87 | 1.09
NCI-H23 | 0.403 | 0.469 | 0.451 | 0.337 | 0.33 | 0.3 | 0.359 | 0.253 | 0.177 | 0.618 | 0.573 | 0.612 | 0.543 | 0.288 | 0.31 | 0.282 | 0.252 | 0.358 | – | –
NCI-H322M | 0.797 | 0.874 | 0.905 | 0.756 | 1.14 | 1.01 | 0.935 | 0.661 | 0.702 | 0.891 | 0.976 | 1.04 | 0.651 | 0.687 | 0.658 | 0.632 | 0.654 | 0.699 | 1.04 | 1.08
NCI-H358 | 0.553 | 0.536 | 0.329 | 0.243 | 0.709 | 0.612 | 0.792 | 0.572 | 0.521 | 0.734 | 0.836 | 0.57 | 0.373 | 0.206 | 0.204 | 0.158 | 0.174 | 0.217 | 0.678 | 0.719
NCI-H441 | 0.856 | 0.701 | 0.365 | 0.706 | 0.74 | 0.589 | 0.454 | 0.439 | 0.394 | 0.503 | 0.599 | 0.45 | 0.48 | 0.239 | 0.212 | 0.21 | 0.264 | 0.315 | 0.794 | 0.493
NCI-H460 | 0.887 | 0.935 | 0.875 | 0.915 | 0.545 | 0.383 | 0.458 | 0.085 | 0.138 | 0.809 | 0.764 | 0.649 | 0.474 | 0.535 | 0.424 | 0.496 | 0.435 | 0.452 | 1.15 | 0.759
NCI-H520 | 0.993 | 0.715 | 0.631 | 0.377 | 0.432 | 0.347 | 0.264 | 0.237 | 0.237 | 0.969 | 0.946 | 0.803 | 0.638 | 0.598 | 0.414 | 0.426 | 0.424 | 0.436 | 0.715 | 0.921
NCI-H596 | 0.953 | 1.08 | 1.07 | 1.09 | 0.622 | 0.666 | 0.739 | 0.739 | 0.585 | 0.975 | 1.03 | 1.11 | 0.902 | 1 | 1.01 | 0.958 | 0.853 | 1.06 | 0.891 | 0.919
NCI-H647 | 1.07 | 1.24 | 1.08 | 0.596 | 0.718 | 0.512 | 0.428 | 0.348 | 0.302 | 1.37 | 1.19 | 1 | 0.63 | 0.449 | 0.273 | 0.356 | 0.325 | 0.301 | 1.3 | 1.44
NCI-H650 | 0.726 | 0.656 | – | 0.673 | 0.374 | 0.377 | 0.279 | 0.259 | 0.236 | 0.942 | 0.941 | – | 0.956 | 0.313 | 0.306 | 0.328 | 0.271 | 0.287 | – | –
NCI-H661 | – | 0.861 | – | 1.17 | 0.693 | 0.757 | 0.749 | 0.579 | 0.489 | 0.432 | 0.613 | 0.451 | 0.414 | 0.557 | 0.522 | 0.524 | 0.472 | 0.55 | 1.01 | 0.58
NCI-H727 | 1.1 | 0.799 | 1.04 | 0.659 | – | 0.801 | 0.657 | 0.487 | 0.59 | 0.328 | 0.3 | 0.383 | 0.333 | 0.798 | 0.875 | 0.956 | 0.655 | 0.941 | 0.98 | 0.39
NCI-H838 | 0.895 | 0.834 | 0.906 | 0.681 | 0.405 | 0.347 | 0.383 | 0.221 | 0.222 | 1.01 | 1.12 | 1.1 | 0.761 | 0.418 | 0.408 | 0.475 | 0.433 | 0.444 | 0.918 | 1.14
NCI-H1355 | 1.07 | 1.02 | 1.04 | 1.1 | 0.731 | 0.832 | 0.739 | 0.649 | 0.61 | 0.799 | 0.975 | 0.861 | 0.747 | 0.326 | 0.388 | 0.344 | 0.339 | 0.359 | 1.18 | 0.852
NCI-H1437 | 0.9 | 0.744 | 0.898 | 0.774 | 0.696 | 0.624 | 0.591 | 0.485 | 0.49 | 1.09 | 1.07 | 0.784 | 0.33 | 0.537 | 0.529 | 0.531 | 0.589 | 0.487 | 0.936 | 1.01
NCI-H1651 | 0.827 | 0.849 | 0.877 | 0.821 | 0.18 | 0.182 | 0.195 | 0.17 | 0.169 | 1.06 | 0.982 | 0.741 | 0.856 | 0.623 | 0.413 | 0.667 | 0.602 | 0.581 | 0.875 | 1.01
NCI-H1666 | 0.918 | 1.03 | 0.852 | 0.66 | 0.718 | 0.863 | 0.702 | 0.717 | 0.551 | 0.734 | 0.791 | 0.646 | 0.517 | 0.746 | 0.733 | 0.699 | 0.65 | 0.719 | 1.02 | 0.853
NCI-H1734 | 0.626 | 0.607 | 0.663 | 0.524 | 0.654 | 0.583 | 0.557 | 0.442 | 0.328 | 0.851 | 0.875 | 0.739 | 0.765 | 0.458 | 0.465 | 0.566 | 0.499 | 0.489 | 0.669 | 0.852
NCI-H1755 | 0.829 | 0.851 | 0.931 | 1.02 | 0.89 | 0.891 | 0.864 | 0.851 | 0.833 | 1.03 | 1.01 | 1.06 | 1.1 | 0.759 | 0.693 | 0.729 | 0.72 | 0.759 | 0.892 | 1.12
NCI-H1792 | 1.02 | 1.05 | 0.864 | 0.963 | 0.449 | 0.345 | 0.338 | 0.244 | 0.37 | 0.597 | 0.617 | 0.505 | 0.589 | 0.543 | 0.437 | 0.57 | – | 0.523 | 1.01 | 0.592
NCI-H1915 | 0.863 | 0.87 | 0.809 | 1.03 | 0.252 | 0.265 | 0.251 | 0.185 | 0.167 | 1.12 | 1.12 | 1.06 | 1.19 | 0.24 | 0.262 | 0.261 | 0.272 | 0.263 | – | –
NCI-H1944 | 0.971 | 1.04 | 1.1 | 0.957 | 0.42 | 0.419 | 0.358 | 0.386 | 0.327 | 1.11 | 1.25 | 1.05 | 0.752 | 0.476 | 0.415 | 0.426 | 0.391 | 0.435 | – | –
NCI-H1975 | 0.974 | 0.93 | 0.954 | 0.943 | 0.9 | 0.772 | 0.623 | 0.389 | 0.271 | 0.925 | 1.07 | 0.989 | 1.04 | 0.358 | 0.396 | 0.41 | 0.339 | 0.393 | 1.02 | 0.911
NCI-H1993 | 0.757 | 0.845 | 0.926 | 0.788 | 1.06 | 1 | 1.06 | 1.13 | 0.849 | 0.739 | 0.698 | 0.727 | 0.756 | 0.563 | 0.62 | 0.621 | 0.522 | 0.51 | 0.82 | 0.746
NCI-H2009 | 1.08 | 1.01 | 0.853 | 1.16 | 0.605 | 0.566 | 0.549 | 0.486 | 0.334 | 1.17 | 1.18 | 1.15 | 1.34 | 0.381 | 0.348 | 0.361 | 0.37 | 0.373 | 1.11 | 1.21

— the supplement of paper PMC10307832
